Measurements taken from patent US5922719A, “Coumarin dopamine D4 receptor antagonists” (priority 1997, dated 1999).
Structures can show the parent of a compound that is named as a salt. Where two headings read alike, the source gives them in different places.

Legend:
[1] = target: T1, human recombinant dopamine D4.2 receptor (Homo sapiens, UniProt P21917, DEL265-296); experiment: [3H]spiperone receptor binding assay, D4.2 (CHO K1 membranes); conditions: [3H]spiperone 0.2 nM, human D4.2, CHO K1 membranes, 60 minutes at 25° C.
T1 construct: expressed in transfected cells
T1 sequence (P21917 with tags, fused parts or gaps DEL265-296): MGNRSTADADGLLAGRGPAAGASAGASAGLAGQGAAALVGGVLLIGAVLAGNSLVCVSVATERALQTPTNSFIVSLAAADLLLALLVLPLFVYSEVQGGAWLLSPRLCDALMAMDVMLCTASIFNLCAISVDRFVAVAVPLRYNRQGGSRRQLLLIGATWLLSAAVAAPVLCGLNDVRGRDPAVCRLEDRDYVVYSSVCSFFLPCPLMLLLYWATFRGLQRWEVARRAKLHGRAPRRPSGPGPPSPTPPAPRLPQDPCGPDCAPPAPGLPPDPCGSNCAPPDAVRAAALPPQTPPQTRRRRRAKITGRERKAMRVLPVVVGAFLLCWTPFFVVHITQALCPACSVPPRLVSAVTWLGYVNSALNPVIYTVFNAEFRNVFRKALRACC
Source text: (§1) A cell line expressing human dopamine D2 (Long form) receptors was purchased from Oregon Health Sciences University, Portland, Ore. The D2 receptor cDNA was subcloned into an expression vector, pRc/CMV. The plasmids were transfected by electroporation into CHO K1 cells. A single stable transfectant, resistant to the antibiotic G418, was isolated and selected for use in the binding studies. For D4 binding, CHO K1 cells stably transfected to express the human recombinant dopamine D4.2 receptor subtype, as described by Shih, et al., "The expression and functional characterization of human dopamine D4.2 receptor in CHO K1 cells," Soc.
(§2) Cells were grown until confluent, after which growth medium was removed and replaced with 0.02% ethylene diamine tetracetate (EDTA) in a phosphate-buffered saline solution (Sigma Chemical Co; St. Louis, Mo.) and scraped from the flasks. The cells were centrifuged at about 1000×g for 10 minutes at 40° C. and then resuspended in TEM buffer (25 mM Tris-HCL, pH 7.4, 5 mM EDTA, and 6 mM MgCl2) for D2 or the D4.2 buffer (50 mM Tris-HCl, pH 7.4, 5 mM EDTA, 1.5 mM CaCl2, 5 mM KCl, and 120 mM NaCl) and homogenized. The membranes were pelleted by centrifugation at 20,000×g at 40° C. for 20 minutes. Then the pellets were resuspended in an appropriate buffer at 1 mL/flask and stored at -70° C. until used in the receptor binding assay.
After 60 minutes incubation at 25° C., the incubations were terminated by rapid filtration through Whatmann GF/B glass fibre filters (soaked for 1 hour in 0.5% polyethylenimine) on a -cell harvester, with three washes of 1 mL ice-cold buffer. […] Nonspecific binding was defined in presence of 1 mM of haloperidol.
(§3) Saturation and competition binding data were analyzed using an iterative nonlinear least-square curve-fitting Ligand program. […] Experimental compounds were made up as stock solutions in dimethyl sulfoxide (DMSO). […] Each observation was carried out in triplicate. To allow these calculations, Kd values were measured for the interaction of various ligands with the receptor. […]

[2] = target: human dopamine D2 (Long form) receptor (Homo sapiens, UniProt P14416); experiment: [3H]spiperone receptor binding assay, D2 (Long form) (CHO K1 membranes); conditions: [3H]spiperone 0.2 nM, human D2 (Long form), CHO K1 membranes, 60 minutes at 25° C.; read-out: D2 Ki
human dopamine D2 (Long form) receptor, sequence (P14416 whole entry): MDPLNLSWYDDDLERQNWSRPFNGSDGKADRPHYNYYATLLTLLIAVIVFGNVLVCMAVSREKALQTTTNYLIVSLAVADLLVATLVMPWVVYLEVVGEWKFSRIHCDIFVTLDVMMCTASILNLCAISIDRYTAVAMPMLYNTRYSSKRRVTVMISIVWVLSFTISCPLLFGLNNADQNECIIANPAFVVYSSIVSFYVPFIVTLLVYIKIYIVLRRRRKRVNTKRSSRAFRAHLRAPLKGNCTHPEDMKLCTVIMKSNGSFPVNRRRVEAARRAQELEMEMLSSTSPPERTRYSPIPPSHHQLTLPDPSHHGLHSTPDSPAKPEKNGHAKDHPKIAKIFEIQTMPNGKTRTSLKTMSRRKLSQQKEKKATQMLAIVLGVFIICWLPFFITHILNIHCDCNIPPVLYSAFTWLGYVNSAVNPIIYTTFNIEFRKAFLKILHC
Source text: as §1, with “Soc. Neurosci., 1995;21(Part 1):621.” for “Soc.”
as §2, with “CHO K1 cells expressing either human D2 and D4.2 receptors were grown in 162 cm^2 culture flasks in F12 medium (Gibco Laboratories, Grand Island, N.Y.) supplemented with 10% fetal bovine serum (FBS, Hyclone, Logan, UT) in an atmosphere of 5% Co2 /95% air at 37° C. Cells” for “Cells”
After 60 minutes incubation at 25° C., the incubations were terminated by rapid filtration through Whatmann GF/B glass fibre filters (soaked for 1 hour in 0.5% polyethylenimine) on a -cell harvester, with three washes of 1 mL ice-cold buffer. Individual filter disks containing the bound ligand were placed in counting vials with 4 mL of scintillation fluid (Ready Gel, Beckman Instrument Inc, Fullerton, Calif.) and then counted in a Beckman LS-6800 liquid scintillation counter at an efficiency of 45%. Nonspecific binding was defined in presence of 1 mM of haloperidol.
as §3

SMILES	Ki ([1]; read-out: D4 Ki)	Ki [2]	Ki ([1]; D4 Ki)
O=c1ccc2ccc(CN3CCN(c4ccc(CO)c(Cl)c4)CC3)cc2o1 [Example 2, 7-[4-(3-Chloro-4-hydroxymethyl-phenyl)-piperazin-1-ylmethyl]-chromen-2-one]	11 nM	10600 nM	
Cc1cccc(N2CCN(Cc3ccc4oc(=O)ccc4c3)CC2)c1 [Example 49, 6-(4-m-Tolyl-piperazin-1-ylmethyl)-chromen-2-one]			74 nM
O=c1ccc2ccc(CN3CCC(c4ccccc4)CC3)cc2o1 [Example 7, 7-(4-Phenyl-piperidin-1-ylmethyl)-chromen-2-one]			18 nM
O=c1ccc2ccc(CN3CCN(c4ccccc4)CC3)cc2o1 [Example 13, 7-(4-Phenyl-piperazin-1-ylmethyl)-chromen-2-one]		5340 nM	26 nM
Cc1ccc(N2CCN(Cc3ccc4oc(=O)ccc4c3)CC2)cc1 [Example 36, 6-(4-p-Tolyl-piperazin-1-ylmethyl)-chromen-2-one]		5830 nM	10.9 nM
O=c1ccc2ccc(CN3CCN(Cc4ccccc4)CC3)cc2o1 [Example 30, 7-(4-Benzyl-piperazin-1-ylmethyl)-chromen-2-one]			2660 nM
O=Cc1ccc(N2CCN(Cc3ccc4ccc(=O)oc4c3)CC2)cc1Cl [Example 11, 2-Chloro-4-[4-(2-oxo-2H-chromen-7-ylmethyl)-piperazin-1-yl]-benzaldehyde]	24.6 nM	> 5880 nM	
CCCSc1cccc(N2CCN(Cc3ccc4ccc(=O)oc4c3)CC2)c1 [Example 27, 7-[4-(3-Propylsulfanyl-phenyl)-piperazin-1-ylmethyl]-chromen-2-one]	91 nM		
O=c1ccc2ccc(CN3CCN(c4ccc(F)cc4)CC3)cc2o1 [Example 24, 7-[4-(4-Fluoro-phenyl)-piperazin-1-ylmethyl]-chromen-2-one]			59 nM
COc1cc(N2CCN(Cc3ccc4ccc(=O)oc4c3)CC2)cc(OC)c1OC [Example 31, 7-[4-(3,4,5-Trimethoxy-phenyl)-piperazin-1-ylmethyl]-chromen-2-one]	> 2000 nM		
Cc1ccc(C2CCN(Cc3ccc4ccc(=O)oc4c3)CC2)cc1 [Example 12, 7-(4-p-Tolyl-piperidin-1-ylmethyl)-chromen-2-one]	25.7 nM		
O=c1ccc2ccc(CN3CCN(c4ccc5ccccc5c4)CC3)cc2o1 [Example 23, 7-(4-Naphthalen-2-yl-piperazin-1-ylmethyl)-chromen-2-one]	49.7 nM		
COc1ccc(N2CCN(Cc3ccc4ccc(=O)oc4c3)CC2)cc1 [Example 26, 7-[4-(4-Methoxy-phenyl)-piperazin-1-ylmethyl]-chromen-2-one]			75 nM

Further lines, with some results ahead:

Ki ([1]; read-out: D4 Ki)	Ki [2]	SMILES	Ki ([1]; D4 Ki)
33 nM	1000 nM	O=c1ccc2ccc(CN3CCN(c4ccccc4F)CC3)cc2o1 [Example 18, 7-[4-(2-Fluoro-phenyl)-piperazin-1-ylmethyl]-chromen-2-one]	
44 nM	4020 nM	O=c1ccc2ccc(CN3CCN(c4cccc(F)c4)CC3)cc2o1 [Example 22, 7-[4-(3-Fluoro-phenyl)-piperazin-1-ylmethyl]-chromen-2-one]	
28 nM	218 nM	O=c1ccc2cc(CN3CCN(c4ccccc4Cl)CC3)ccc2o1 [Example 43, 6-[4-(2-Chloro-phenyl)-piperazin-1-ylmethyl]-chromen-2-one]	
5000 nM		O=c1ccc2ccc(CN3CCN(c4ncccn4)CC3)cc2o1 [Example 32, 2H-1-Benzopyran-2-one, 7-[[4-(2-pyrimidinyl)-1-piperazinyl]methyl]-, dihydrochloride]	
19 nM	688 nM	Cc1cccc(N2CCN(Cc3ccc4ccc(=O)oc4c3)CC2)c1C [Example 8, 7-[4-(2,3-Dimethyl-phenyl)-piperazin-1-ylmethyl]-chromen-2-one]	
24 nM	5880 nM	O=c1ccc2ccc(CN3CCN(c4cccc(C(F)(F)F)c4)CC3)cc2o1 [Example 10, 7-[4-(3-Trifluoromethyl-phenyl)-piperazin-1-ylmethyl]-chromen-2-one]	
13 nM	7290 nM	O=c1ccc2cc(CN3CCN(c4ccc(CO)c(Cl)c4)CC3)ccc2o1 [Example 38, 6-[4-(3-Chloro-4-hydroxymethyl-phenyl)-piperazin-1-ylmethyl]-chromen-2-one]	
163 nM		O=c1ccc2cc(CN3CCN(c4ncccn4)CC3)ccc2o1 [Example 50, 2H-1-Benzopyran-2-one, 6-[[4-(2-pyrimidinyl)-1-piperazinyl]methyl]-]	
57 nM	7120 nM	COc1cccc(N2CCN(Cc3ccc4oc(=O)ccc4c3)CC2)c1 [Example 47, 6-[4-(3-Methoxy-phenyl)-piperazin-1-ylmethyl]-chromen-2-one]	
26 nM	5880 nM	O=c1ccc2ccc(CN3CCN(c4cccc([N+](=O)[O-])c4)CC3)cc2o1 [Example 14, 7-[4-(3-Nitro-phenyl)-piperazin-1-ylmethyl]-chromen-2-one]	
316 nM		COc1cc(N2CCN(Cc3ccc4oc(=O)ccc4c3)CC2)cc(OC)c1OC [Example 51, 6-[4-(3,4,5-Trimethoxy-phenyl)-piperazin-1-ylmethyl]-chromen-2-one]	
128 nM		Cc1c(Cl)cccc1N1CCN(Cc2ccc3ccc(=O)oc3c2)CC1 [Example 29, 7-[4-(3-Chloro-2-methyl-phenyl)-piperazin-1-ylmethyl]-chromen-2-one]	
29.9 nM		O=c1ccc2ccc(CN3CCN(c4ccc(CO)c(F)c4)CC3)cc2o1 [Example 16, 7-[4-(3-Fluoro-4-hydroxymethyl-phenyl)-piperazin-1-ylmethyl]-chromen-2-one]	
41 nM		O=c1ccc2cc(CN3CCN(c4cccc(Cl)c4Cl)CC3)ccc2o1 [Example 45]	
41 nM		O=c1ccc2cc(CN3CCN(c4ccc(F)cc4)CC3)ccc2o1 [Example 46, 6-[4-(4-Fluoro-phenyl)-piperazin-1-ylmethyl]-chromen-2-one]	
39.5 nM		O=c1ccc2ccc(CN3CCN(c4ccc(CO)c(Br)c4)CC3)cc2o1 [Example 19, 7-[4-(3-Bromo-4-hydroxymethyl-phenyl)-piperazin-1-ylmethyl]-chromen-2-one]	
93 nM		O=c1ccc2ccc(CN3CCN(c4ccc(Cl)cc4)CC3)cc2o1 [Example 28, 7-[4-(4-Chloro-phenyl)-piperazin-1-ylmethyl]-chromen-2-one]	
